Consider eight compounds from ChEMBL document CHEMBL1201862, “PubChem BioAssay data set” (2004).

Molecules are shown by their SMILES.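 All cell lines were grown in 96-well plates and treated with compound for 48 hours. The concentration for 50% growth inhibition is given as GI50.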 Activity calls are given as the source filed them. No stated cut-off is given here; in the data, active = GI50 up to about 1.1 µM and inactive = higher.

What all share (assay): NCI-60 cell line screen, 48 h
The subject of assay [1] is UACC-257.
Assay [2] relates to A549.
In assay [3] the test system is SN12C.
The subject of assay [4] is SK-MEL-5.
The test system of assay [5] is T47D.
Assay [6] has as its system SK-MEL-2.
Assay [7] relates to NCI/ADR-RES.
Assay [8] has as its system KM12.
In assay [9] the test system is EKVX.
Assay [10] relates to ACHN.
In assay [11] the test system is HT-29.
Assay [12] deals with DU-145.
Assay [13] has as its system SF-295.
For assay [14], the system named is HOP-92.
Assay [15] deals with HOP-62.
Assay [16] concerns U-251.
Assay [17] has as its system NCI-H460.
Assay [18] has as its system LOX IMVI.
Assay [19] relates to OVCAR-3.
For assay [20], the system named is RXF 393.

For `COc1ccc2c(c1)CCc1c-2n(CCN(C)C)c2ccc(OC)cc12`, the GI50 in assay [1] was 33 µM (inactive); in assay [2] it was 15 µM (inactive); in assay [3], 12.5 µM (inactive); in assay [4] it was 12.4 µM (inactive); in assay [5] it was 15.5 µM (inactive); in assay [6], 18.5 µM (inactive). Also, the GI50 was 18.5 µM (inactive) in assay [7]; 7.53 µM (inactive) in [8]; 31.2 µM (inactive) in [9]; 14.2 µM (inactive) in assay [10]; 3.44 µM (inactive) in [11]; 33.9 µM (inactive) in assay [12]. The GI50 in assay [13] was 18.3 µM (inactive); in assay [14], 94.2 µM (inactive); in assay [15] it was 16.1 µM (inactive); in assay [16], 12.1 µM (inactive); in assay [17], 30.4 µM (inactive); in [18] it was 7.89 µM (inactive). For the same compound, the GI50 in assay [19] is 31 µM (inactive).

Regarding `CCCCOC(=O)C(=O)C(CC(C(=O)Cc1ccccc1)c1ccccc1)C(=O)C=C(C)C` (stereo not given), the GI50 in assay [1], in assay [20], in assay [2], in [3], in assay [4] and in assay [6] was > 100 µM (inactive) throughout. Moreover, the GI50 in assay [7], in [8], in assay [9], in [10], in assay [11] and in assay [12] was > 100 µM (inactive) in each case. The GI50 in assay [13], in assay [14], in assay [15], in assay [16], in assay [17] and in [18] was > 100 µM (inactive) each time. In addition, the GI50 in [19] was > 100 µM (inactive).

As for `Cc1ccc(C(=O)N(C(C)C)C(C)C)cc1/N=N/N(C)C`, the GI50 in [1] was 57.4 µM (inactive); in assay [2], > 100 µM (inactive); in assay [3], > 100 µM (inactive); in assay [4], > 100 µM (inactive); in assay [5], 39.4 µM (inactive); in assay [6], > 100 µM (inactive). For the same compound, the GI50 in assay [7] is > 100 µM (inactive); in assay [8], 45.2 µM (inactive); in [9], > 100 µM (inactive); in assay [10] it was > 75.5 µM (inactive); in assay [11], 74.1 µM (inactive); in assay [12], > 100 µM (inactive). Also, the GI50 is > 86.9 µM (inactive) in assay [13]; > 64.6 µM (inactive) in assay [14]; > 100 µM (inactive) in [15]; > 80 µM (inactive) in [16]; > 100 µM (inactive) in assay [17]; > 31.6 µM (inactive) in [18]. Further, the GI50 in [19] is 31.3 µM (inactive).

Consider `COc1ccc(NC(=O)C(=O)C(CC2C(=O)NC(=S)NC2=O)C(=O)c2ccc3ccccc3c2)c([N+](=O)[O-])c1` (stereo not given), for which the GI50 in [1], in assay [2], in assay [3], in [4], in [5] and in [6] was > 100 µM (inactive) in each case. The GI50 in assay [7], in assay [8], in assay [9], in assay [10], in assay [11] and in assay [12] was > 100 µM (inactive) throughout. Moreover, the GI50 in assay [13], in assay [14], in [16], in [17], in assay [18] and in assay [19] was > 100 µM (inactive) each time.

With `CC(=O)N1C=Cc2c(c(C)c3c([nH]c4ccccc43)c2C)C1`, the GI50 in [1] was 15.1 µM (inactive); in assay [20], 16.3 µM (inactive); in [2] it was 4.54 µM (inactive); in assay [3] it was 3.8 µM (inactive); in assay [4] it was 13.8 µM (inactive); in [6] it was 12.3 µM (inactive). For the same compound, the GI50 in assay [7] was 2.5 µM (inactive); in [8], 2.9 µM (inactive); in assay [9], 0.479 µM (active); in assay [10], 1.09 µM (active); in [11] it was 4.58 µM (inactive); in assay [12], 11.5 µM (inactive). Besides, the GI50 was 8.22 µM (inactive) in assay [13]; 5.4 µM (inactive) in [14]; 3.02 µM (inactive) in assay [15]; 4.89 µM (inactive) in assay [16]; 1.23 µM (inactive) in assay [17]; 4.07 µM (inactive) in assay [18]. Moreover, the GI50 in assay [19] was 1.74 µM (inactive).

For the compound `O=C1C(OC(=O)c2ccccc2)=C(c2ccc(O)cc2)C(=O)C(OC(=O)c2ccccc2)=C1c1ccc(O)cc1`, the GI50 in assay [1] is > 100 µM (inactive); in assay [2], > 100 µM (inactive); in assay [3], > 100 µM (inactive); in assay [4] it was > 100 µM (inactive); in assay [5], > 100 µM (inactive); in [6], 32 µM (inactive). Besides, the GI50 in [7] is > 100 µM (inactive); in assay [8], 60.5 µM (inactive); in assay [9] it was > 100 µM (inactive); in assay [10], > 100 µM (inactive); in assay [11], > 100 µM (inactive); in assay [12] it was > 100 µM (inactive). Moreover, the GI50 was 61 µM (inactive) in assay [13]; > 100 µM (inactive) in [14]; 40.5 µM (inactive) in assay [16]; 74.1 µM (inactive) in [17]; 76.4 µM (inactive) in assay [18]; 38.1 µM (inactive) in assay [19].

Turning to `COc1ccccc1/C=C1/Sc2scc(CC(=O)Nc3ccccc3)[n+]2C1=O`, the GI50 in [1] is 25.1 µM (inactive); in assay [20], 22.6 µM (inactive); in [2], 31.5 µM (inactive); in [3] it was 31.3 µM (inactive); in assay [4] it was 16 µM (inactive); in [6], 19.1 µM (inactive). The GI50 in [7] is 19.8 µM (inactive); in [8] it was 19.7 µM (inactive); in assay [9] it was 30.9 µM (inactive); in assay [10], 28.9 µM (inactive); in assay [11] it was 42 µM (inactive); in assay [12], 27.7 µM (inactive). The GI50 in [13] is 32.9 µM (inactive); in assay [14], 17 µM (inactive); in [15], 34 µM (inactive); in assay [16] it was 33 µM (inactive); in [17], 29.5 µM (inactive); in [18] it was 39 µM (inactive). Also, in assay [19], the GI50 is 16.9 µM (inactive).

For the compound `CCCN(CCC)C(=S)N/N=C/c1cccc(C)n1`, the GI50 was < 0.01 µM (active) in [1]; 0.151 µM (active) in [20]; 0.108 µM (active) in [2]; 0.122 µM (active) in assay [3]; 0.129 µM (active) in assay [4]; 0.594 µM (active) in assay [6]. The GI50 in assay [7] was < 0.01 µM (active); in assay [8], 0.107 µM (active); in assay [9], 0.552 µM (active); in assay [10], 0.177 µM (active); in [11] it was < 0.01 µM (active); in assay [12] it was 0.321 µM (active). The GI50 was 0.258 µM (active) in assay [13]; 0.391 µM (active) in assay [14]; 0.195 µM (active) in assay [15]; < 0.01 µM (active) in assay [16]; 0.159 µM (active) in [17]; 0.141 µM (active) in [18]. The GI50 in assay [19] is < 0.01 µM (active).
